Source: patent US20250127774A1, “COMPOUNDS FOR LABELLING NUCLEIC ACID AND USES THEREOF” (THE ROYAL INSTITUTION FOR THE ADVANCEMENT OF …, priority 2022, published 2025)

Assays:
[1] = tested on: vinyl-modified RNA in Hela cells; assay: Metabolic RNA labeling; type: cell-based; conditions: VU 2.5 mM 24 h, PINK 100 μM 5 h; diminished by RNase A/T1
Method: The labeling approach was extended to vinyl-modified RNA. Hela cells were seeded in ibidi® 8-well plates (5.000 cells per well) and allowed to settle overnight. Cells were then incubated with 5-vinyl uridine (VU, 2.5 mM) for 24 h. After 19 h, PINK (100 μM final concentration) was added for 5 h. […]. Cells were fixed and optionally treated with RNase A/T1 mix (100 μg/mL RNase A; 250 U/mL RNase T1). Total cellular DNA was counterstained with Hoechst 33342 (5 μg/mL). Images were acquired on confocal microscopes under 20× (a) or 63× (b) magnification (FIG. 13).
Metabolic RNA Labeling. Hela cells were seeded in μ-slide 8-well chambers (ibidi®), cat-#: 80826) at a density of 2.0×10^4 cells per mL (5.000 cells per well) and allowed to settle overnight. Cells were aspirated and 5-vinyl uridine (VU, 2.5 mM, 0.1% DMSO) was added. Cells were incubated for 19 h, at which point PINK (100 μM; 0.2% DMSO final concentrations) was added. After additional 5 h, cells were aspirated, washed with PBS, and fixed with 3.7% PFA in PBS for 15 min. Cells were quenched with 50 mM glycine/NH4Cl for 5 min, washed with PBS, and permeabilized twice with 0.2% Triton X-100 in PBS for 5 min each followed by washing with PBS, twice 100 mM NaOAc buffer (pH 5.2), 10% DMSO in PBS, and PBS for 5 min each. […]

HeLa and U2OS cells = assay: Resazurin assay, toxicity evaluation of PINK; type: cell-based; conditions: low micromolar concentrations of PINK (0-12.5 μM), 24 and 72 h
Method: Cellular respiratory activity was evaluated by measuring the fluorescence emission after addition of resazurin ([…]).
Resazurin Assay. HeLa or U2OS cells were seeded in 96-well plates at a density of 7,500 cells per well and incubated overnight. The supernatant was removed and 100 μL fresh media containing PINK (0-12.5 μM; 0.1% DMSO) was added. Cells were grown for 24 or 72 h, at which point 10 μL resazurin (880 μM in PBS; final concentration: 80 μM) was added. After incubation for 3 h, the fluorescence emission at 590 nm (excitation 560 nm; cut-off: 575 nm) was measured using a SpectraMax M5 plate reader (Molecular Devices, Sunnyvale, CA, USA). LC50 values were determined from two independent replicates.

C57BL/6J mice = assay: 5-VdU incorporation in rapidly proliferating cells in vivo; conditions: 500 mg/kg 5-VdU i.p. on two subsequent days
Method: 5-VdU incorporation in rapidly proliferating cells in vivo. C57BL/6J mice were either injected with 200 μl 10% DMSO in 1× sterile PBS as a vehicle or 500 mg/kg 5-VdU i.p. on two subsequent days and then sacrificed. Experimental group size was n=6. (A) Bone marrow was explanted, fixed, permeabilized and stained with PINK for 4 h at RT. Nuclei were counterstained with Hoechst33342. A strong nuclear signal can be observed in the PINK treated sample when compared to the controls. (B) Small intestine and (C) spleen tissue was subjected to paraffin embedding and the slides where then stained with PINK for 4 h at RT. Nuclei were counterstained with Hoechst33342. Specific nuclear signals are visible in the PINK treated sample when compared to the controls. […] These cells can be stained with PINK in FFPE sections=in vivo DNA replication/proliferation reporter.

Jurkat cells = assay: Cell counting assay (Trypan Blue); type: cell-based, human; conditions: 10 μM nucleoside, 1 μM PINK
Method: To confirm the cytotoxicity results obtained from the resazurin assays, a cell counting assay was conducted using Trypan Blue. It is an azo dye allows to discriminate between viable cells and dead cells, since dead cells will take in the dye, while viable cells will remain white. 28 From the resazurin assays, and after some optimization based on cell sensitivity to the vinyl-nucleosides, it was determined that […] and 5 μM of vinyl-nucleosides alone and in combination with 1 μM of PINK were two interesting concentrations to explore in Jurkat, MV4-11, and MOLM-13 cells. Cells were incubated with 5 μM or 10 μM of each nucleoside overnight (Day 0), and 1 μM of PINK was added for the combinations and PINK alone 24h post nucleoside incubation (Day 1). The cells were counted every 24h.
Cell Counting Assay. Jurkat, MV4-11 and MOLM-13 cells were seeded in 12-well plates at a density of 500 000 cells/mL, 175 000 cells/mL and 375 000 cells/mL, respectively, in duplicates. The cells were incubated overnight in fresh media containing 10 μM (Jurkat) or 5 μM (MV4-11 and MOLM-13) of each nucleoside (˜0.01% DMSO). 24h post nucleoside addition, 1 μM of PINK (˜0.01% DMSO) were added to the respective wells and incubated for 24 h. The cells were counted using a cell counter (BIO RAD TC20) to determine the percentage of viable cells and the cell concentration. The cells were counted every 24h using Trypan Blue in a 1:1 ratio.

| Compound | fluorescent signal of live-cell metabolic RNA labeling [1] | toxicity to cells (cellular respiratory activity, resazurin) (HeLa and U2OS cells) | incorporation into rapidly dividing cells (bone marrow, small intestine, spleen; PINK staining) (C57BL/6J mice) | toxicity to mice (C57BL/6J mice) | cell concentration (cell growth) (Jurkat cells) |
| --- | --- | --- | --- | --- | --- |
| Cc1nnc(-c2ccc3cc4ccc(N(C)C)cc4nc3c2)nn1 [PINK] | strong fluorescent signal | not toxic to cells even at longer incubation times |  |  |  |
| C=Cc1cn([C@H]2C[C@H](O)[C@@H](CO)O2)c(=O)[nH]c1=O [VdU, 5-vinyl-2′-deoxyuridine] |  |  | incorporates into rapidly dividing cells in vivo | non-toxic to mice at high concentrations | more impact on cell growth than expected from the resazurin assay |
